Patent US10532040B2, “Methods of treating cancer with herbacetin” (REGENTS OF THE UNIVERSITY OF MINNESOTA, priority 2011, dated 2020)

Legend:
[1] = tested on: SKH-1 hairless mice, DMBA/TPA-induced skin tumors; test: DMBA/TPA two-stage skin carcinogenesis mouse model, 20 weeks; format: in vivo
Source text: Hairless SKH:HR-1-hrBr (SKH-1) mice were obtained from Charles River and were maintained under “specific pathogen-free” conditions following the guidelines established by the University of Minnesota Institutional Animal Care and Use Committee. Mice (8˜9 weeks old) were divided into five groups: 1) DMBA+vehicle group (n=20); 2) DMBA-initiated (200 nmol) and TPA-promoted group (17 nmol; n=20); 3) DMBA/TPA+100 nmol of herbacetin (n=20) group; 4) DMBA/TPA+500 nmol of herbacetin group (n=20); 5) DMBA+500 nmol of herbacetin group (n=20). One week after initiation, 17 nmol of TPA in acetone was topically applied twice weekly until the termination of the experiment at 20 weeks. When used, each dose of herbacetin was dissolved in 0.2 ml of 10% H2O in acetone and then topically applied to dorsal mouse skin at 30 min before TPA treatment. The number and volume of tumors per mouse was recorded weekly. The results are expressed as the percent of mice with tumors (incidence), average tumor volumes (size) and average number of tumors per mouse (multiplicity).

[2] = tested on: activator protein-1, Cox2, NF-kappaB; test: promoter activities (preliminary data); format: cell-based
[3] = tested on: SKH-1 hairless mice, solar UV-induced skin tumors; test: solar UV induced-skin tumor mouse model; format: in vivo; conditions: herbacetin 100 or 500 nmol topical for 7 weeks; relative to vehicle group
Method: Mice were exposed to solar-UV (48 kJ/UVA, 2.9 kJ/UVB) 3 times weekly for 12 weeks. The solar UV treatment was discontinued and at twenty weeks later, mice were topically treated with 100 or 500 nmol of herbacetin (in acetone) for an additional 7 weeks. Mice (8-9 weeks old) were divided into three groups: 1) solar UV+vehicle group (n=4); 2) solar UV+100 nmol of herbacetin (n=4) group; 3) solar UV+500 nmol of herbacetin (n=4). The volume of tumors per mouse was recorded weekly.

[4] = molecular target: T1, ODC (WT, D44A, D243A, E384A) (Homo sapiens, UniProt P11926, D44A); test: activity of ectopically expressed ODC (WT, D44A, D243A, E384A); format: cell-based; conditions: D44A vs D243A, E384A or wildtype ODC
T1 construct: expressed in transfected cells; host or cells: HCT116 colon cancer cells
T1 sequence (P11926 1-461 D44A): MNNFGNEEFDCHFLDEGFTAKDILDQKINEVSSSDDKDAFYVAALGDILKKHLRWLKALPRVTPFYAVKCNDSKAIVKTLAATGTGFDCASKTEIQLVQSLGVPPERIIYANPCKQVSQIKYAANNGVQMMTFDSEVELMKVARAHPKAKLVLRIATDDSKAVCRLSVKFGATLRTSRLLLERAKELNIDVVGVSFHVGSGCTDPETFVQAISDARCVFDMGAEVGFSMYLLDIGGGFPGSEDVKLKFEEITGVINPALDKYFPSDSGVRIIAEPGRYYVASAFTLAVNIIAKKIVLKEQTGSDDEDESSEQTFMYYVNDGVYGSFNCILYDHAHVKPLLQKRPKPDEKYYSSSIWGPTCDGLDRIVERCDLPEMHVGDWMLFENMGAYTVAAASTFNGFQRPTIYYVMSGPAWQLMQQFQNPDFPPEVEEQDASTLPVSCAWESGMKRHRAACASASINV
Method: FIGS. 1A-1H. Herbacetin binds directly to ODC and inhibits ODC activity. (a) Chemical structure of herbacetin, a new allosteric ODC inhibitor. (b) Computer modeling of herbacetin and the ODC protein crystal structure. […] (c, upper panel) Recombinant ODC, (c, lower panel) HCT116 colon cancer cell lysate or (d) ectopically expressed ODC (WT, mutant D44A, D243A and E384A) cells were incubated with herbacetin-conjugated Sepharose 4B beads or with Sepharose 4B beads alone. Proteins were pulled down using anti-Xpress and then analyzed by Western blotting. The effect of herbacetin on ODC activity was assessed using a (e) recombinant ODC protein, (f) HCT116 colon cancer cells, or (g) TPA-treated JB6 mouse skin epidermal cells. (h) The effect of herbacetin on ectopically expressed ODC (WT, D44A, D243A, E384A) activity was measured as the release of CO2 from L-[1-C^14] ornithine. For e-h, data are represented as means±S.D. of values from triplicate experiments and the asterisk (*) indicates a significant difference (p<0.05) between herbacetin- or DFMO-treated samples compared to untreated controls. WB, Western blot.
ODC activity was measured as the release of CO2 from L-[1-C^14] ornithine as previously described ([…]).

[5] = tested on: HCT116, DLD1, HT29 colon cancer cells; test: growth of colon cancer cells, MTS assay; format: cell-based
Method: FIGS. 3A-3H. Anticancer effect of herbacetin. (a) The effect of herbacetin on ODC activity in colon cancer cell lines was measured as the release of CO2 from L-[1-C^14] ornithine. […] (b) The effect of herbacetin and DFMO on the growth of colon cancer cells and (c) TPA-induced JB6 cell growth was compared. Cells were incubated for 72 h and growth was estimated using the MTS assay. (d) The effect of herbacetin on anchorage independent HCT116 colon cancer cell growth and (e) TPA-induced JB6 cell transformation was assessed. Cells were incubated for 2 weeks and then colonies were counted using a microscope and the Image-Pro PLUS (v.6) computer software program. The effect of herbacetin on AP-1 reporter activity in (f) HCT116 colon cancer cells and (g) TPA-induced AP-1 reporter activity in JB6 mouse epidermal cells was analyzed using the substrates included in the reporter assay system. Data are represented as means±S.D. of triplicate values from three independent experiments and the asterisk (*) indicates a significant (p<0.05) effect of herbacetin or DFMO compared to untreated or TPA-treated controls. (h) The effect of herbacetin on the phosphorylation of ERK1 and ERK2 in HCT116 colon cancer cells was determined by Western blotting. Similar results were observed from two independent experiments.

[6] = tested on: SKH-1 hairless mice, DMBA/TPA; test: TPA-induced skin cancer prevention study, 30 weeks (Example 2); format: in vivo, mouse
Method: For the effect of herbacetin on preventing TPA-induced skin cancer, SKH-1 hairless mice were divided into 5 groups of 26-30 mice/group. All mice were initiated with 200 nmol DMBA applied topically on the dorsal surface. Two weeks later, TPA (17 nmol) was applied topically on the dorsal surface twice a week for a total of 30 weeks. Four groups of mice were treated with herbacetin (20, 100, 200, or 500 nmol) 30 min before application of TPA.

[7] = herbacetin 100 or 500 nmol topical before TPA, relative to TPA-treated group

Structure (SMILES): O=c1c(O)c(-c2ccc(O)cc2)oc2c(O)c(O)cc(O)c12 [herbacetin, 3,5,7,8,4′-Pentahydroxyflavone]
- tumors in herbacetin only (no TPA) group ([1]; DMBA + 500 nmol herbacetin, no TPA): No tumors were observed
- ODC activity in skin tumors ([1]; TPA-induced skin tumor tissue): significantly inhibited ODC activity
- number of skin tumors [1, 7]: strongly suppressed
- volume of skin tumors [1, 7]: strongly suppressed
- ODC downstream proteins such as ERK and RSK in skin tumors ([1]; immunoblot of TPA-induced skin tumors): strongly suppressed
- promoter activities of activator protein-1, Cox2, NF-kappaB [2]: suppress promoter activities
- size (volume) of solar UV-induced skin tumors [3]: significantly decreased
- susceptibility of ODC D44A mutant activity to herbacetin [4]: less susceptible
- inhibitory effect on growth of colon cancer cell lines ([5]; 72 h, MTS, HCT116, DLD1, HT29): greatest inhibitory effect on colon cancer cells that expressed higher levels of ODC
- proliferation and anchorage independent cell growth of several colon cancer cell lines ([5]; preliminary data): decrease proliferation and anchorage independent cell growth
- tumor growth induced by TPA ([6]; herbacetin 20, 100, 200 or 500 nmol 30 min before TPA, 30 weeks): decreased tumor growth
- mice developing papillomas (incidence) ([6]; vs untreated control mice): Fewer mice developed papillomas
- number of papillomas ([6]; vs untreated control mice): fewer papillomas (dose-dependent)
- tumor size ([6]; vs untreated controls): significantly smaller tumors
